The values below come from ChEMBL document CHEMBL5724914, “Linking interpersonal differences in gut microbiota composition and drug biotransformation activity” (2024).

The conditions of data set [1]: human gut metagenome, 24 h, 2 µM.
The conditions of data set [2]: human gut metagenome, 24 h, 2 µM. This is another data set of the same source.
A short description of data set [3]: The drug is tested on Z-007 corresponding to rat gut metagenome with ENA study accession number: PRJEB37062 and ENA sample accession number: ERS12561807 for biotransformation under anaerobic condition. The drug concentrations were measured over 9 timepoints collected between 0 and 24 hours of incubation by liquid-chromatography-coupled mass spectrometry (LC–MS). The conditions noted are these: 2 µM.

Data set [4] in a line: The drug is tested on Z-028 corresponding to mouse gut metagenome with ENA study accession number: PRJEB37062 and ENA sample accession number: ERS12561827 for biotransformation under anaerobic condition. The drug concentrations were measured over 9 timepoints collected between 0 and 24 hours of incubation by liquid-chromatography-coupled mass spectrometry (LC–MS). The conditions noted are these: 2 µM.

The nature of data set [5]: The drug is tested on Z-019 corresponding to rat gut metagenome with ENA study accession number: PRJEB37062 and ENA sample accession number: ERS12561818 for biotransformation under anaerobic condition. The drug concentrations were measured over 9 timepoints collected between 0 and 24 hours of incubation by liquid-chromatography-coupled mass spectrometry (LC–MS). Particulars: 2 µM.

For data set [6] the following is noted: human gut metagenome, 24 h, 2 µM. The source holds these as a separate data set.
Data set [7] can be described thus: The drug is tested on Z-009 corresponding to pig gut metagenome with ENA study accession number: PRJEB37062 and ENA sample accession number: ERS12561809 for biotransformation under anaerobic condition. The drug concentrations were measured over 9 timepoints collected between 0 and 24 hours of incubation by liquid-chromatography-coupled mass spectrometry (LC–MS). Particulars: 2 µM.

The conditions of data set [8]: human gut metagenome, 24 h, 2 µM. The source holds these as a separate data set.
Data set [9] is described as follows: The drug is tested on Z-025 corresponding to rabbit gut metagenome with ENA study accession number: PRJEB37062 and ENA sample accession number: ERS12561824 for biotransformation under anaerobic condition. The drug concentrations were measured over 9 timepoints collected between 0 and 24 hours of incubation by liquid-chromatography-coupled mass spectrometry (LC–MS). The conditions noted are these: 2 µM.

Data set [10] in a line: The drug is tested on Z-005 corresponding to metagenome with ENA study accession number: PRJEB37062 and ENA sample accession number: ERS12561805 for biotransformation under anaerobic condition. The drug concentrations were measured over 9 timepoints collected between 0 and 24 hours of incubation by liquid-chromatography-coupled mass spectrometry (LC–MS). Particulars: 2 µM.

Data set [11] in a line: The drug is tested on Z-027 corresponding to metagenome with ENA study accession number: PRJEB37062 and ENA sample accession number: ERS12561826 for biotransformation under anaerobic condition. The drug concentrations were measured over 9 timepoints collected between 0 and 24 hours of incubation by liquid-chromatography-coupled mass spectrometry (LC–MS). The conditions noted are these: 2 µM.

The conditions of data set [12]: human gut metagenome, 24 h, 2 µM. This is another data set of the same source.
Data set [13] in a line: The drug is tested on WLS-073 corresponding to human gut metagenome with ENA study accession number: PRJEB37062 and ENA sample accession number: ERS12561749 for biotransformation under anaerobic condition. The drug concentrations were measured over 9 timepoints collected between 0 and 24 hours of incubation by liquid-chromatography-coupled mass spectrometry (LC–MS). Particulars: 2 µM.

Data set [14] can be described thus: The drug is tested on Z-020 corresponding to rabbit gut metagenome with ENA study accession number: PRJEB37062 and ENA sample accession number: ERS12561819 for biotransformation under anaerobic condition. The drug concentrations were measured over 9 timepoints collected between 0 and 24 hours of incubation by liquid-chromatography-coupled mass spectrometry (LC–MS). The conditions noted are these: 2 µM.

A short description of data set [15]: The drug is tested on Z-006 corresponding to mouse gut metagenome with ENA study accession number: PRJEB37062 and ENA sample accession number: ERS12561806 for biotransformation under anaerobic condition. The drug concentrations were measured over 9 timepoints collected between 0 and 24 hours of incubation by liquid-chromatography-coupled mass spectrometry (LC–MS). The conditions noted are these: 2 µM.

Data set [16] can be described thus: The drug is tested on Z-017 corresponding to mouse gut metagenome with ENA study accession number: PRJEB37062 and ENA sample accession number: ERS12561816 for biotransformation under anaerobic condition. The drug concentrations were measured over 9 timepoints collected between 0 and 24 hours of incubation by liquid-chromatography-coupled mass spectrometry (LC–MS). The conditions noted are these: 2 µM.

For data set [17] the following is noted: human gut metagenome, 24 h, 2 µM. This is another data set of the same source.
The conditions of data set [18]: human gut metagenome, 24 h, 2 µM. This is another data set of the same source.
A short description of data set [19]: The drug is tested on WLS-086 corresponding to human gut metagenome with ENA study accession number: PRJEB37062 and ENA sample accession number: ERS12561752 for biotransformation under anaerobic condition. The drug concentrations were measured over 9 timepoints collected between 0 and 24 hours of incubation by liquid-chromatography-coupled mass spectrometry (LC–MS). The conditions noted are these: 2 µM.

Data set [20] in a line: The drug is tested on WLS-350 corresponding to human gut metagenome with ENA study accession number: PRJEB37062 and ENA sample accession number: ERS12561789 for biotransformation under anaerobic condition. The drug concentrations were measured over 9 timepoints collected between 0 and 24 hours of incubation by liquid-chromatography-coupled mass spectrometry (LC–MS). The conditions noted are these: 2 µM.

The structures appear in SMILES notation.
Note: call rule not given here.

As to `C#C[C@]1(OC(C)=O)CC[C@H]2[C@@H]3CCC4=C/C(=N/O)CC[C@@H]4[C@H]3CC[C@@]21CC` [NORGESTIMATE], the “Bacterial Biotransformation” value is recorded as “Compound NOT metabolized” in data set [1]; “Compound metabolized” in [2]; “Compound NOT metabolized” in data set [3]; “Compound NOT metabolized” in data set [4]; “Compound NOT metabolized” in [5]; “Compound NOT metabolized” in data set [6]. For the same compound, the “Bacterial Biotransformation” value in data set [7] was “Compound NOT metabolized”; in [8], “Compound metabolized”; in [9], “Compound NOT metabolized”; in data set [10], “Compound NOT metabolized”; in [11], “Compound NOT metabolized”; in data set [12] it was “Compound metabolized”. For the same compound, the “Bacterial Biotransformation” value in data set [13] was “Compound metabolized”; in data set [14], “Compound NOT metabolized”; in [15], “Compound NOT metabolized”; in data set [16], “Compound NOT metabolized”; in data set [17] it was “Compound metabolized”; in data set [18] it was “Compound NOT metabolized”. For the same compound, the “Bacterial Biotransformation” value in data set [19] and in [20] was “Compound metabolized” in each case.

As for `CCS(=O)(=O)CCn1c([N+](=O)[O-])cnc1C` [TINIDAZOLE], the “Bacterial Biotransformation” value in [1], in data set [2], in data set [3], in data set [4], in data set [5] and in data set [6] was “Compound metabolized” each time. Besides, the “Bacterial Biotransformation” value in data set [7], in [8], in [9], in [10], in [11] and in data set [12] was “Compound metabolized” throughout. In addition, the “Bacterial Biotransformation” value in data set [13], in [14], in data set [15], in data set [16], in data set [17] and in data set [18] was “Compound metabolized” throughout. Moreover, the “Bacterial Biotransformation” value in [19] and in data set [20] was “Compound metabolized” throughout.

In the case of `N=C(N)NC(=O)Cc1c(Cl)cccc1Cl` [GUANFACINE], the “Bacterial Biotransformation” value in data set [1], in data set [2], in [3], in [4], in data set [5] and in [6] was “Compound NOT metabolized” in each case. Besides, the “Bacterial Biotransformation” value in data set [7], in data set [8], in data set [9], in data set [10], in data set [11] and in data set [12] was “Compound NOT metabolized” throughout. For the same compound, the “Bacterial Biotransformation” value in data set [13], in data set [14], in data set [15], in [16], in data set [17] and in [18] was “Compound NOT metabolized” throughout. The “Bacterial Biotransformation” value in [19] and in data set [20] was “Compound NOT metabolized” throughout.
